In brackets after ≈: the same amount, converted by molar mass. Where two headings read alike, the source gives them in different places.
Columns and labels:
[1] = tested on: Shigella spp. (40); assay: MIC, CLSI broth microdilution; type: cell-based; conditions: for % by category resistant / % by category susceptible: CLSI 2008 criteria
[2] = tested on: intraphagocytic L. monocytogenes EGD; type: cell-based, Listeria monocytogenes; conditions: for Emax, CFU decrease from original inoculum: 24 h
[3] = tested on: intraphagocytic L. pneumophila ATCC 33153; type: cell-based, Legionella pneumophila; conditions: for Emax, CFU decrease from original inoculum: 48 h; for Emax, Δ log10 CFU at 24 h compared to the post-phagocytosis inoculum: L.p., intracellular
[4] = tested on: Salmonella spp. (20); assay: MIC, CLSI broth microdilution; type: cell-based; conditions: for MIC50 / MIC90: Salmonella; for MIC Range / MIC 50% / MIC 90%: Salmonella spp.; for % by category resistant / % by category susceptible: CLSI 2008 criteria
[5] = tested on: H. pylori (23); assay: MIC, agar dilution / Etest
[6] = tested on: C. jejuni (20); assay: MIC, agar dilution / Etest; conditions: for MIC50 / MIC90: Campylobacter jejuni; for MIC50: read-out: MIC 50% (Etest); for MIC90: read-out: MIC 90% (Etest)
[7] = tested on: L. pneumophila ATCC 33153; type: cell-based, Legionella pneumophila
[8] = tested on: staphylococci; assay: MIC50 against Gram-positive cocci; type: cell-based
[9] = tested on: streptococci; assay: MIC50 against Gram-positive cocci; type: cell-based
[10] = Helicobacter pylori, read-out: MIC 50% (Etest)
[11] = C. jejuni, 20 strains, agar dilution

CC[C@H]1OC(=O)[C@H](C)[C@@H](O[C@H]2C[C@@](C)(OC)[C@@H](O)[C@H](C)O2)[C@H](C)[C@@H](O[C@@H]2O[C@H](C)C[C@H](N(C)C)[C@H]2O)[C@](C)(O)C[C@@H](C)CN(C)[C@H](C)[C@@H](O)[C@]1(C)O [AZI, azithromycin]
MIC50 ([1]; Shigella spp., 40 strains): 4 µg/mL (≈ 5.34 µM)
MIC90 ([1]; Shigella spp., 40 strains): 8 µg/mL (≈ 10.7 µM)
Emax, Δ log10 CFU at 24 h compared to the post-phagocytosis inoculum [2]: −0.81 Δ log10 CFU
Emax, CFU decrease from original inoculum [2]: −0.81 log10 units
Emax, CFU decrease from original inoculum [3]: −0.83 log10 units
Emax, Δ log10 CFU at 24 h compared to the post-phagocytosis inoculum [3]: −0.83 Δ log10 CFU
MIC50 [4]: 4 µg/mL (≈ 5.34 µM)
MIC90 [4]: 8 µg/mL (≈ 10.7 µM)
MIC Range ([4]; 20 strains): 2 to 8 µg/mL
MIC Range ([4]; 20 strains, listed as AZ): 2-8 (AZ) μg/ml

CC1(C)S[C@@H]2[C@H](NC(=O)[C@H](N)c3ccccc3)C(=O)N2[C@H]1C(=O)O [Ampicillin]
MIC50 [5, 10]: ≤ 0.015 µg/mL

CC[C@H]1OC(=O)[C@@](C)(F)C(=O)[C@H](C)[C@@H](OC2OC(C)CC(N(C)C)C2O)[C@@](C)(OC)C[C@@H](C)C(=O)[C@H](C)[C@H]2N(CCCCn3cc(-c4cccc(N)c4)nn3)C(=O)O[C@]12C (some centres unmarked) [CEM-101, 11-N-4-(3-aminophenyl)-[1,2,3]triazol-1-yl]-butyl-5-desosaminyl-3-oxo-2-fluoro-erythronolide A,-11,12-cyclic carbamate]
No. of strains at MIC 0.06 ([1]; MIC distribution, 40 strains): 0
No. of strains at MIC 0.12 ([1]; MIC distribution, 40 strains): 0
No. of strains at MIC 0.25 ([1]; MIC distribution, 40 strains): 0
No. of strains at MIC 0.5 ([1]; MIC distribution, 40 strains): 0
No. of strains at MIC 1 ([1]; MIC distribution, 40 strains): 2
No. of strains at MIC 2 ([1]; MIC distribution, 40 strains): 0
No. of strains at MIC 4 ([1]; MIC distribution, 40 strains): 14
No. of strains at MIC 8 ([1]; MIC distribution, 40 strains): 18
No. of strains at MIC ≦0.03 ([1]; MIC distribution, 40 strains): 0
No. of strains at MIC ≧16 ([1]; MIC distribution, 40 strains): 6
MIC 50% ([1]; Shigella spp., 40 strains): 8 µg/mL (≈ 9.47 µM)
MIC 90% ([1]; Shigella spp., 40 strains): 16 µg/mL (≈ 18.9 µM)
MIC 50% [6, 11]: 1 µg/mL (≈ 1.18 µM)
MIC 90% [6, 11]: 4 µg/mL (≈ 4.73 µM)
No. of strains at MIC 0.06 ([6]; MIC distribution, 20 strains): 0
No. of strains at MIC 0.12 ([6]; MIC distribution, 20 strains): 0
No. of strains at MIC 0.25 ([6]; MIC distribution, 20 strains): 0
No. of strains at MIC 0.5 ([6]; MIC distribution, 20 strains): 0
No. of strains at MIC 1 ([6]; MIC distribution, 20 strains): 10
No. of strains at MIC 2 ([6]; MIC distribution, 20 strains): 0
No. of strains at MIC 4 ([6]; MIC distribution, 20 strains): 8
No. of strains at MIC 8 ([6]; MIC distribution, 20 strains): 2
No. of strains at MIC ≦0.03 ([6]; MIC distribution, 20 strains): 0
No. of strains at MIC ≧16 ([6]; MIC distribution, 20 strains): 0
Emax, Δ log10 CFU at 24 h compared to the post-phagocytosis inoculum [2]: −0.66 Δ log10 CFU
Emax, CFU decrease from original inoculum [2]: −0.66 log10 units
MIC ([7]; conventional susceptibility testing): 0.004 µg/mL (≈ 0.00473 µM)
MIC ([7]; pH-adjusted broth, pH 6.5): 0.01 µg/mL (≈ 0.0118 µM)
MIC ([7]; pH-adjusted broth, pH 7.4): 0.005 µg/mL (≈ 0.00592 µM)
MIC50 [8]: 0.06 µg/mL (≈ 0.071 µM)
MIC50 [9]: 0.015 µg/mL (≈ 0.0178 µM)
Emax, CFU decrease from original inoculum [3]: −1.03 log10 units
Emax, Δ log10 CFU at 24 h compared to the post-phagocytosis inoculum [3]: −1.03 Δ log10 CFU
No. of strains at MIC 0.06 ([4]; MIC distribution, 20 strains): 0
No. of strains at MIC 0.12 ([4]; MIC distribution, 20 strains): 0
No. of strains at MIC 0.25 ([4]; MIC distribution, 20 strains): 0
No. of strains at MIC 0.5 ([4]; MIC distribution, 20 strains): 0
No. of strains at MIC 1 ([4]; MIC distribution, 20 strains): 3
No. of strains at MIC 2 ([4]; MIC distribution, 20 strains): 4
No. of strains at MIC 4 ([4]; MIC distribution, 20 strains): 4
No. of strains at MIC 8 ([4]; MIC distribution, 20 strains): 4
No. of strains at MIC ≦0.03 ([4]; MIC distribution, 20 strains): 0
No. of strains at MIC ≧16 ([4]; MIC distribution, 20 strains): 5
MIC 50% ([4]; 20 strains): 4 µg/mL (≈ 4.73 µM)
MIC 90% ([4]; 20 strains): >16 µg/mL

CC[C@H]1OC(=O)[C@H](C)[C@@H](O[C@H]2C[C@@](C)(OC)[C@@H](O)[C@H](C)O2)[C@H](C)[C@@H](O[C@@H]2O[C@H](C)C[C@H](N(C)C)[C@H]2O)[C@](C)(OC)C[C@@H](C)C(=O)[C@H](C)[C@@H](O)[C@]1(C)O [CLR, clarithromycin]
MIC50 ([1]; Shigella spp., 40 strains): > 16 µg/mL
MIC90 ([1]; Shigella spp., 40 strains): > 16 µg/mL
% by category resistant ([5]; CLSI 2008 criteria): 8.7%
% by category susceptible ([5]; CLSI 2008 criteria): 91.3%
MIC50 ([5]; Helicobacter pylori): 0.03 µg/mL (≈ 0.0401 µM)
MIC90 ([5]; Helicobacter pylori): 0.12 µg/mL (≈ 0.16 µM)
MIC50 [5, 10]: ≤ 0.015 µg/mL
MIC Range (Etest) ([6]; C. jejuni, 20 strains): 1 to 8 µg/mL
MIC Range (Etest) ([6]; C. jejuni, 20 strains, listed as CLA): 1-8 (CLA) μg/ml
MIC50 [6]: 2 µg/mL (≈ 2.67 µM)
MIC90 [6]: 4 µg/mL (≈ 5.35 µM)
Emax, Δ log10 CFU at 24 h compared to the post-phagocytosis inoculum [3]: −0.71 Δ log10 CFU
MIC50 [4]: 0.015 µg/mL (≈ 0.0201 µM)
MIC90 [4]: > 16 µg/mL

C=CC1=C(C(=O)O)N2C(=O)[C@@H](NC(=O)/C(=N\O)c3csc(N)n3)[C@H]2SC1 [Cefdinir]
% by category resistant [1]: 0.0%
% by category susceptible [1]: 100.0%
MIC50 ([1]; Shigella spp., 40 strains): 0.25 µg/mL (≈ 0.632 µM)
MIC90 ([1]; Shigella spp., 40 strains): 0.25 µg/mL (≈ 0.632 µM)
% by category resistant [4]: 0.0%
% by category susceptible [4]: 100.00%
MIC50 [4]: 0.25 µg/mL (≈ 0.632 µM)
MIC90 [4]: 0.5 µg/mL (≈ 1.26 µM)

CCC[C@@H]1C[C@@H](C(=O)N[C@@H]([C@H]2O[C@H](SC)[C@H](O)[C@@H](O)[C@H]2O)[C@H](C)Cl)N(C)C1 [Clindamycin]
MIC50 ([1]; Shigella spp., 40 strains): > 4 µg/mL
MIC90 ([1]; Shigella spp., 40 strains): > 4 µg/mL

CC[C@H]1OC(=O)[C@H](C)[C@@H](O[C@H]2C[C@@](C)(OC)[C@@H](O)[C@H](C)O2)[C@H](C)[C@@H](O[C@@H]2O[C@H](C)C[C@H](N(C)C)[C@H]2O)[C@](C)(O)C[C@@H](C)C(=O)[C@H](C)[C@@H](O)[C@]1(C)O [Erythromycin]
MIC50 ([1]; Shigella spp., 40 strains): > 4 µg/mL
MIC90 ([1]; Shigella spp., 40 strains): > 4 µg/mL
MIC Range (Etest) ([6]; C. jejuni, 20 strains): 0.5 to 4 µg/mL
MIC50 [6]: 2 µg/mL (≈ 2.73 µM)
MIC90 [6]: 4 µg/mL (≈ 5.45 µM)
MIC50 [4]: > 4 µg/mL
MIC90 [4]: > 4 µg/mL

C[C@H]1COc2c(N3CCN(C)CC3)c(F)cc3c(=O)c(C(=O)O)cn1c23 [Levofloxacin, levofloxacin]
% by category resistant [1]: 0.0%
% by category susceptible [1]: 100.0%
MIC50 ([1]; Shigella spp., 40 strains): ≤ 0.12 µg/mL
MIC90 ([1]; Shigella spp., 40 strains): ≤ 0.12 µg/mL
% by category resistant [4]: 0.0%
% by category susceptible [4]: 95.0%
MIC50 [4]: ≤ 0.12 µg/mL
MIC90 [4]: 1 µg/mL (≈ 2.77 µM)

Cc1ncc([N+](=O)[O-])n1CCO [Metronidazole]
MIC Range (Etest) ([5]; H. pylori, eight strains, Etest): 0.06 to 64 µg/mL
MIC50 [5, 10]: 0.5 µg/mL (≈ 2.92 µM)

CC[C@H]1OC(=O)[C@H](C)C(=O)[C@H](C)[C@@H](O[C@@H]2O[C@H](C)C[C@H](N(C)C)[C@H]2O)[C@](C)(OC)C[C@@H](C)C(=O)[C@H](C)[C@H]2N(CCCCn3cnc(-c4cccnc4)c3)C(=O)O[C@]12C [TEL, telithromycin]
MIC50 ([1]; Shigella spp., 40 strains): 16 µg/mL (≈ 19.7 µM)
MIC90 ([1]; Shigella spp., 40 strains): 16 µg/mL (≈ 19.7 µM)
Emax, Δ log10 CFU at 24 h compared to the post-phagocytosis inoculum [3]: −0.63 Δ log10 CFU
MIC50 [4]: 8 µg/mL (≈ 9.85 µM)
MIC90 [4]: > 16 µg/mL

CN(C)[C@@H]1C(O)=C(C(N)=O)C(=O)[C@@]2(O)C(O)=C3C(=O)c4c(O)cccc4[C@@](C)(O)[C@H]3C[C@@H]12 [Tetracycline]
MIC50 [5, 10]: 0.06 µg/mL (≈ 0.135 µM)
MIC Range (Etest) ([6]; C. jejuni, 20 strains): 0.06 to 256 µg/mL
MIC50 [6]: 64 µg/mL (≈ 144 µM)
MIC90 [6]: > 256 µg/mL

Amoxicillin-clavulanate
% by category resistant [1]: 0.0%
% by category susceptible [1]: 72.5%
MIC 50% ([1]; Shigella spp., 40 strains): 8 µg/mL
MIC 90% ([1]; Shigella spp., 40 strains): >8 µg/mL
% by category resistant [4]: 0.0%
% by category susceptible [4]: 95.0%
MIC 50% ([4]; 20 strains): 2 µg/mL
MIC 90% ([4]; 20 strains): 8 µg/mL

Quinupristin-dalfopristin
MIC 50% ([1]; Shigella spp., 40 strains): >4 µg/mL
MIC 90% ([1]; Shigella spp., 40 strains): >4 µg/mL
MIC Range ([1]; Shigella spp., 40 strains): >4 µg/mL
MIC 50% ([4]; 20 strains): >4 µg/mL
MIC 90% ([4]; 20 strains): >4 µg/mL

Trimethoprim-sulfamethoxazole [Trim-sulfa]
% by category resistant [1]: 62.5%
% by category susceptible [1]: 37.5%
MIC 50% ([1]; Shigella spp., 40 strains): >4 µg/mL
MIC 90% ([1]; Shigella spp., 40 strains): >4 µg/mL
% by category resistant [4]: 0.0%
% by category susceptible [4]: 100.00%
MIC 50% ([4]; 20 strains): ≦0.25 μg/ml
MIC 90% ([4]; 20 strains): ≦0.25 μg/ml
MIC Range ([4]; 20 strains): ≦0.25 μg/ml
